Drawing on US11154470B1, “Anti-inflammatory and senolytic dental care product with tooth whitening characteristics” (Credentis AG, priority 2020, dated 2021), this text covers ΔE for one sequence.

A short description of the assay: Tooth whitening: colour change of tooth enamel measured with a dental spectrophotometer (L*a*b, ISO 28399). The note with it: peptide alone 7.5 mg/mL, without excipients; 24 h after application; 10 teeth, three measurements per tooth. How it is done:
Suspensions of oligopeptide 104 (5 mg/ml) with or without hydroxyapatite particles (average size d50≤300 nm (Horiba); 40-60% crystallinity, 25 wt %) were generated.
The suspensions were directly applied onto an enamel surface of a tooth, and residues washed off (10 sec). The specimen was stored in distilled water for 24 hours at 37° C. The procedure was repeated 3 times.
The tooth colour was measured with a dental spectrophotometer (VITA Easyshade). The illumination conditions were standardized with a black box as the background for the teeth during the measurement. The tip was applied perpendicular to the tooth surface and the average L*a*b-values from three repetitions were used for evaluations. Colour measurement were done at baseline ([…]), 24 hours after first application (t1), 24 hours after second application (t3), 24 hours after the third application (t4).
The mean changes of the L*a*b-values between different measurements in each group were expressed as […]E (according to ISO 28399).
Oligopeptide 104 was used in a concentration of 7.5 mg/mL, i.e., the concentration was higher than the concentration of peptide used in the application alone. ΔE was determined 24 h after application, with three measurements per tooth and 10 teeth examined. ΔE was 0.62. […]

Turning to QQRFEWEFEQQ (P11-4 / oligopeptide 104), the ΔE is on record as 0.62.
